The source of these data is ChEMBL document CHEMBL1201862, “PubChem BioAssay data set” (2004).

Among the test systems are M19-MEL; OVCAR-8; HCC 2998; TK-10; RPMI-8226; SF-268; K562; NCI-H522; 786-0; COLO 205; HOP-92; SK-OV-3; HL-60; UACC-257; UACC-62; OVCAR-4.
What all share (assay): NCI-60 cell line screen, 48 h

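In this assay, cells in 96-well plates receive the compound at five concentrations for 48 hours. Endpoints are linearly interpolated between the surrounding concentrations. GI50 = concentration required for 50% inhibition of growth.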 Calls of active or inactive are those of the source. Cut-off read from the data, not from the text of the source: active = GI50 up to about 1.1 µM and inactive = higher.

For the molecule `CCCCCCCCCC(=O)OCC1OC(n2cc(F)c(=O)[nH]c2=O)C(NC(=O)OCc2ccccc2)C(OC(=O)CCCCCCCCC)C1O` (stereo not given), the GI50 was 36.8 µM (inactive) in the assay with M19-MEL; 24.3 µM (inactive) with OVCAR-8; 41.2 µM (inactive) in the assay on HCC 2998; 80.9 µM (inactive) in the assay on TK-10; 21.4 µM (inactive) with RPMI-8226; 51.4 µM (inactive) in the assay on SF-268. For the same molecule, the GI50 is 30.1 µM (inactive) in the assay with K562; 20.9 µM (inactive) with NCI-H522; 18.9 µM (inactive) with 786-0; 32.8 µM (inactive) in the assay with COLO 205; 18.2 µM (inactive) in the assay on HOP-92; > 100 µM (inactive) in the assay on SK-OV-3. In addition, the GI50 is 24.1 µM (inactive) in the assay on HL-60, 61.8 µM (inactive) in the assay with UACC-257, 44.2 µM (inactive) in the assay with UACC-62 and 16.6 µM (inactive) in the assay on OVCAR-4.

Regarding `CCCCc1c2c([n+]([O-])c3c1CCCC3)CCCC2`, the GI50 is 66.8 µM (inactive) in the assay on M19-MEL; > 100 µM (inactive) in the assay with OVCAR-8; > 100 µM (inactive) in the assay with HCC 2998; > 100 µM (inactive) in the assay with TK-10; 50.8 µM (inactive) in the assay with RPMI-8226; 66.4 µM (inactive) in the assay with SF-268. The GI50 is 3.56 µM (inactive) in the assay with K562; 2 µM (inactive) with NCI-H522; > 100 µM (inactive) with 786-0; > 100 µM (inactive) in the assay with COLO 205; 98.4 µM (inactive) in the assay on SK-OV-3; 38.1 µM (inactive) in the assay on HL-60. Also, the GI50 in the assay with UACC-257 is 40.6 µM (inactive).

On to `CC(=O)OC1OC2C(NC(=O)OC(C)(C)C)C1CC2(OCc1ccccc1)OCc1ccccc1` (stereo not given), for which the GI50 in the assay with M19-MEL was 25.8 µM (inactive); in the assay on OVCAR-8, 53.8 µM (inactive); in the assay with HCC 2998, 21.6 µM (inactive); in the assay on TK-10 it was 17 µM (inactive); in the assay with RPMI-8226, 11.6 µM (inactive); in the assay on SF-268, 35.7 µM (inactive). Also, the GI50 in the assay with K562 is 17 µM (inactive); with NCI-H522, 15.1 µM (inactive); with 786-0, 23.3 µM (inactive); in the assay on COLO 205, 21.7 µM (inactive); with HOP-92, 12.5 µM (inactive); with SK-OV-3 it was 28.3 µM (inactive). Also, the GI50 with HL-60 was 12.8 µM (inactive); in the assay with UACC-257, 19.1 µM (inactive); in the assay on UACC-62 it was 19 µM (inactive).

On to `CCOC(=O)C(=O)Nc1c(C)cccc1C`, for which the GI50 in the assay with M19-MEL, in the assay with OVCAR-8, with HCC 2998, with TK-10, in the assay on RPMI-8226 and with SF-268 was > 100 µM (inactive) each time. Besides, the GI50 in the assay with 786-0, with COLO 205, in the assay on HOP-92, in the assay with SK-OV-3, in the assay on UACC-257 and in the assay on UACC-62 was > 100 µM (inactive) throughout. For the same molecule, the GI50 with OVCAR-4 is > 100 µM (inactive).

Turning to `COc1ccccc1C12OC(=O)C1(C)Oc1ccccc1C2=O` (stereo not given), the GI50 with M19-MEL, in the assay on OVCAR-8, in the assay on HCC 2998, in the assay on TK-10, with RPMI-8226 and in the assay on SF-268 was > 100 µM (inactive) throughout. Also, the GI50 was > 100 µM (inactive) in the assay on K562; > 100 µM (inactive) in the assay with 786-0; > 100 µM (inactive) in the assay with COLO 205; 65 µM (inactive) with HOP-92; > 100 µM (inactive) in the assay on SK-OV-3; > 100 µM (inactive) in the assay with HL-60. The GI50 with UACC-257, with UACC-62 and in the assay with OVCAR-4 was > 100 µM (inactive) in each case.

For `Cc1cc([N+](=O)[O-])ccc1Sc1c2ccccc2nc2cc(Cl)ccc12`, the GI50 in the assay with M19-MEL was 43 µM (inactive); in the assay on OVCAR-8 it was 21.8 µM (inactive); in the assay on HCC 2998 it was > 100 µM (inactive); in the assay with TK-10 it was 55.6 µM (inactive); in the assay with SF-268 it was 29.6 µM (inactive); in the assay on K562, 36.1 µM (inactive). Also, the GI50 was 27.7 µM (inactive) with NCI-H522; 35.2 µM (inactive) in the assay on 786-0; 38.4 µM (inactive) with COLO 205; 23.4 µM (inactive) with HOP-92; 47.2 µM (inactive) in the assay on SK-OV-3; 5.78 µM (inactive) in the assay with HL-60. In addition, the GI50 is 73.6 µM (inactive) with UACC-257, 34.5 µM (inactive) in the assay on UACC-62 and 41.4 µM (inactive) with OVCAR-4.

Turning to `Nc1ccc(C(=O)N/C(=C\c2ccc3c(c2)OCO3)c2nc3ccccc3s2)cc1`, the GI50 in the assay with M19-MEL was 14.9 µM (inactive); with OVCAR-8, 14.2 µM (inactive); with HCC 2998, 14.8 µM (inactive); with TK-10, 19.8 µM (inactive); in the assay on SF-268, 11.9 µM (inactive); in the assay with K562 it was 5.38 µM (inactive). The GI50 is 13.8 µM (inactive) in the assay on NCI-H522; 11.6 µM (inactive) in the assay on 786-0; 18.4 µM (inactive) in the assay with COLO 205; 12.3 µM (inactive) in the assay on HOP-92; 21.3 µM (inactive) in the assay on SK-OV-3; 14.4 µM (inactive) in the assay on UACC-62. Moreover, the GI50 in the assay on OVCAR-4 is 12.2 µM (inactive).

On to `FC(F)(F)c1ccc(C2SCc3nc4ccccc4n32)cc1` (stereo not given), for which the GI50 is 66.8 µM (inactive) with M19-MEL; > 100 µM (inactive) with OVCAR-8; > 100 µM (inactive) with HCC 2998; > 100 µM (inactive) in the assay with TK-10; 12.4 µM (inactive) in the assay on RPMI-8226; 95.3 µM (inactive) in the assay on SF-268. Besides, the GI50 is 3.75 µM (inactive) in the assay with K562; > 10 µM (inactive) in the assay with NCI-H522; > 100 µM (inactive) in the assay with 786-0; > 100 µM (inactive) in the assay with COLO 205; 1.11 µM (active) in the assay on HOP-92; 18.2 µM (inactive) with SK-OV-3. Also, the GI50 in the assay with HL-60 is 3.13 µM (inactive); in the assay with UACC-257, 6.56 µM (inactive); in the assay with UACC-62 it was 26.4 µM (inactive).

Consider `CC1(C)C(=O)C(=Cc2ccco2)C1=O`, for which the GI50 with M19-MEL, with OVCAR-8, with HCC 2998, in the assay with TK-10, in the assay with RPMI-8226 and in the assay with SF-268 was > 100 µM (inactive) throughout. For the same molecule, the GI50 with K562, in the assay with NCI-H522, in the assay with 786-0, in the assay with COLO 205, in the assay on HOP-92 and in the assay with SK-OV-3 was > 100 µM (inactive) in each case. The GI50 in the assay on HL-60, in the assay on UACC-257, in the assay on UACC-62 and in the assay on OVCAR-4 was > 100 µM (inactive) throughout.

With `O=C(NC1C2CC3CC(C2)CC1C3)/C(Cl)=C1/Sc2ccccc2NC1=O` (stereo not given), the GI50 is > 91.6 µM (inactive) in the assay on M19-MEL; > 100 µM (inactive) in the assay with OVCAR-8; > 80 µM (inactive) in the assay on HCC 2998; > 64.6 µM (inactive) in the assay on TK-10; > 100 µM (inactive) with SF-268; 29.6 µM (inactive) in the assay on K562. In addition, the GI50 was > 100 µM (inactive) with NCI-H522; > 100 µM (inactive) with 786-0; > 100 µM (inactive) with COLO 205; > 76.4 µM (inactive) with HOP-92; 62.2 µM (inactive) in the assay with HL-60; > 100 µM (inactive) in the assay on UACC-257. The GI50 in the assay with UACC-62 is > 89.5 µM (inactive); in the assay with OVCAR-4, > 100 µM (inactive).
